# Data as given in patent publication US9572760B2, “Uses of compounds and mixtures from Antrodia cinnamomea mycelia” (Simpson Biotech Co., Ltd., priority 2013, dated 2017).
# How the values were obtained:
# [1] = system: cirrhotic animals; assay: Liver fibrosis: hydroxyproline content in the liver and Sirius red staining, DEN cirrhotic animal model; settings: compound B 7 mg/kg, compound C 14 mg/kg, ACM 320 mg/kg, vs control group
# [2] = system: Mouse primary HSC; assay: Profibrogenic gene expression in primary hepatic stellate cells (qRT-PCR); type: cell-based; settings: for Collagen-1 expression / TGF-β expression / TIMP-1 expression / αSMA expression: two concentrations, 72 hrs
# From the text: The AML12 (mouse hepatocyte) cells were obtained from the BCRC (Bioresource Collection and Research Center) and cultured in Dulbecco's modified Eagle media (DMEM, Gibco by Invitrogen) with 1% antibiotic antimycotic (Gibco by Invitrogen) and 15% fetal bovine serum (Gibco by Invitrogen). The human Hepatic Stellate Cell, HSC cell line was obtained from the ScienCell Research Laboratory (USA) and cultured in complete medium, Stellate Cell Medium (ScienCell Research Laboratory) with 2% fetal bovine serum (ScienCell Research Laboratory), 1% stellate cell growth supplement (ScienCell Research Laboratory) and 1% penicillin/streptomycin solution (ScienCell Research Laboratory). It is well known that TGF-β1 can activation of HSC, which was used as a positive control, the HSC cells were seeded in plate for 24 h and then the cells were replaced with medium containing 10 ng TGF-β1 (PeproTech, USA). For primary hepatic stellate cell isolation, C57BL/6 mice were anesthetized by intraperitoneal injection of ketamine and xylazine. […] Mouse livers were perfused in situ with 0.5 mM EGTA containing calcium-free salt solution (8 ml/min, 37° C. for 5 minutes), followed by perfusion with 2-step 0.05% collagenase D and pronase containing buffer (Roche Molecular Biochemicals, Indianapolis, Ind.) for 5 and 10 minutes, respectively. The harvested liver was minced gently on a Petri dish and additional incubation with protease containing buffer at 37° C. for 25 minutes. Then, the liver was filtered with 70 μm cell strainer. Cells were centrifuged and collected followed by 8.2% Nycodenz (Accurate Chemical and Scientific Corp.). The cell lines were cultured at 37° C. in a humidified atmosphere containing 5% CO2.
# Exponentially growing cells were harvested and seeded in a 6-well microtiter plate. Each well of cells were collected to eppendrof in 1 mL of TRIzol buffer (Invitrogen, Carlsbad, Calif., USA), and then mixed with 0.5 mL chloroform/isoamyl alcohol (24:1), eppendrofs were centrifuged at 12,000×g for 10 min at 4° C. The supernatant was transferred to a fresh tube, and isopropanol was added, mix well and stored at −80° C. overnight. The reaction mixture was centrifuged at 12,000×g for 30 min at 4° C. to produce a rude RNA pallet, the pellet was washed with 70% ethanol and air-dried. The concentrations of total RNA were measured by absorbance at 260 nm using a NanoDrop ND-1000 (NanoDrop, USA).
# (§1) Reverse transcription reaction was performed using a commercially available set of High Capacity RNA-to-cDNA Kit (Applied Biosystems, USA). cDNA was prepared from 2 μg of total RNA per 20 μl reaction, according to the manufacturer's instructions—37° C. for 60 minutes, 95° C. for 5 minutes, and hold at 4° C. The resulting cDNA was to a final concentration of 100 ng/μl and constituted a matrix in further experiments.
# Amplification and detection the gene expression by real-time PCR were performed using StepOne plus Real-time PCR System (Applied Biosystems, USA). Samples were assayed in a 10 μl reaction mixture containing 2 μl of template DNA, 5 μl of 2× TaqMan PCR Master Mix (Applied Biosystems, Life Technologies, Foster City, Calif., USA), 0.5 μl of 20× assay mix containing probe, forward and reverse primer (Applied Biosystems, Life Technologies, Foster City, Calif., USA), whereby qPCR targets with the following information were used: (a) α-SMA, Assay ID Rn01759928_g1, (b) TIMP-1, Assay ID Rn00587558_m1, (c) TGF-β1, Assay ID Rn00572010_m1, (d) Collagen I, Assay ID Rn 01463838_m1, (e) GAPDH, Assay ID Rn1462662_g1. To control variation in mRNA concentration, all results were normalized to the housekeeping gene, GAPDH. Relative quantitation was performed using the comparative ΔΔCt method according to the manufacturer's instructions. The cycling conditions used were as follows: 50° C. for 2 min, 95° C. for 10 min followed by 40 cycles of 95° C. for 15 s and 60° C. for 1 min each. […]
# [3] = system: Dermal fibroblast, CG1639 cells; assay: Profibrogenic gene expression in dermal fibroblast cell line (qRT-PCR); type: cell-based; settings: two concentrations, 72 hrs
# From the text: The dermal fibroblast cell line CG1639 was obtained from the BCRC (Bioresource Collection and Research Center) and cultured in Dulbecco's modified Eagle media (DMEM, Gibco by Invitrogen) with 1% antibiotic antimycotic (Gibco by Invitrogen) and 15% fetal bovine serum (Gibco by Invitrogen). The fetal rat skin keratinocyte, FRSK cell line was obtained from the Japan HSRRB (Health Science Research Resources Bank) and cultured in Eagle's minimal essential media (MEM, Gibco by Invitrogen) supplemented with 10% fetal bovine serum (FBS) (Gibco by Invitrogen) and 1% antibiotic antimycotic (Gibco by Invitrogen). B16F10 cells, a murine melanoma cell line, were purchased from American Type Culture Collection (ATCC, Rockville, Md., USA) and was cultured in Eagle's Minimum Essential Medium (MEM; Sigma, St. Louis, Mo.) supplemented with 10% fetal bovine serum (FBS; HyClone Lab. Inc., Logan, Utah), 0.02% antibiotic-antimycotic liquid (penicillin, 10 000 U mL^−1; streptomycin, 10 000 μg mL^−1 and amphotericin B, 25 μg mL^−1; Invitrogen, Carlsbad, Calif.).
# as §1
# Amplification and detection the gene expression by real-time PCR were performed using StepOne plus Real-time PCR System (Applied Biosystems, USA). Samples were assayed in a 10 μl reaction mixture containing 2 μl of template DNA, 5 μl of 2× TaqMan PCR Master Mix (Applied Biosystems, Life Technologies, Foster City, Calif., USA), 0.5 μl of 20× assay mix containing probe, forward and reverse primer (Applied Biosystems, Life Technologies, Foster City, Calif., USA), whereby qPCR targets with the following information were used: (a) α-SMA, Assay ID Rn01759928_g1, (b) TIMP-1, Assay ID Rn00587558_m1, (c) TGF-β1, Assay ID Rn00572010_m1, (d) Collagen I, Assay ID Rn 01463838_m1, (e) GAPDH, Assay ID Rn1462662_g1. To control variation in mRNA concentration, all results were normalized to the housekeeping gene, GAPDH. Relative quantitation was performed using the comparative ΔΔCt method according to the manufacturer's instructions. The cycling conditions used were as follows: 50° C. for 2 min, 95° C. for 10 min followed by 40 cycles of 95° C. for 15 s and 60° C. for 1 min each.
# Dermal fibroblast, CG1639 cells, were exposed to Hepasim compounds by two different concentrations for 72 hrs. Then, RNA was extracted and subsequent real-time quantitative PCR Collagen-1, TGF-β1, α-SMA and TIMP-1 mRNA were measured.
SMILES,liver cirrhosis (hydroxyproline levels and Sirius red-positive areas) [1],anti-fibrosis effect on primary HSC (summary) [2],Collagen-1 expression [2],TGF-β expression [2],TIMP-1 expression [2],αSMA expression [2],"All-4 profibrogenic gene expression (Collagen-1, TGF-β1, α-SMA, TIMP-1) [3]",dose dependence of profibrogenic gene down-regulation [3]
"CC(C)=CCOc1ccc(C2=C(CC(C)C)C(=O)NC2=O)cc1 [Compound B, 3-isobutyl-4-[4-(3-methyl-2-butenyloxy)phenyl]-1H-pyrrol-2,5-dione]",markedly ameliorated,anti-fibrosis effect,dose-dependent effect,dose-dependent effect,dose-dependent effect,dose-dependent effect,down-regulated significantly,dose-dependent effect
"CC(C)=CCOc1ccc(C2=C(CC(C)C)C(=O)N(O)C2=O)cc1 [Compound C, 3-isobutyl-4-[4-(3-methyl-2-butenyloxy)phenyl]-1H-pyrrol-1-ol-2,5-dione]",markedly ameliorated,anti-fibrosis effect,dose-dependent effect,dose-dependent effect,dose-dependent effect,dose-dependent effect,down-regulated significantly,dose-dependent effect
